Laboratory results taken from ChEMBL document CHEMBL1201862, “PubChem BioAssay data set” (2004).
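Values below derive from 48-hour exposures of cells grown in 96-well plates, with endpoints linearly interpolated between the two concentrations bracketing the appropriate inhibition level. GI50 marks 50% less growth.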 Active and inactive are the calls of the source. No stated cut-off is given here; in the data, active = GI50 up to about 1.1 µM and inactive = higher.

What was measured:
Assay in all cases: NCI-60 cell line screen, 48 h
DLD-1 = tested on: DLD-1
DMS-114 = tested on: DMS-114
HOP-18 = tested on: HOP-18
KM-20L2 = tested on: KM-20L2
LXFL 529 = tested on: LXFL 529
M19-MEL = tested on: M19-MEL
RXF 631 = tested on: RXF 631
XF498 = tested on: XF498
DMS-273 = tested on: DMS-273

SMILES	GI50 (DLD-1)	GI50 (DMS-114)	GI50 (HOP-18)	GI50 (KM-20L2)	GI50 (LXFL 529)	GI50 (M19-MEL)	GI50 (RXF 631)	GI50 (XF498)	GI50 (DMS-273)
CCN(CC)c1ccc(/C=C2/C[N+](C)(C)C/C(=C/c3ccc(N(CC)CC)cc3)C2=O)cc1	9.59 µM (inactive)	1.41 µM (inactive)	6.61 µM (inactive)	2.59 µM (inactive)	1.1 µM (active)	1.45 µM (inactive)	> 30.3 µM (inactive)	2.48 µM (inactive)	–
O=C(CCc1cc(-c2ccccc2)nc(S)n1)N(Cc1ccccc1)Cc1ccccc1	> 100 µM (inactive)	> 100 µM (inactive)	> 100 µM (inactive)	> 100 µM (inactive)	> 100 µM (inactive)	> 100 µM (inactive)	–	> 100 µM (inactive)	> 100 µM (inactive)
COC(=O)/C(=C/c1ccc(OC)cc1)C(C(=O)O)=C(C)C	> 100 µM (inactive)	> 100 µM (inactive)	> 100 µM (inactive)	> 100 µM (inactive)	> 100 µM (inactive)	> 100 µM (inactive)	–	–	> 100 µM (inactive)
C=CC(=O)C#CC#CC/C=C\CCCCCCC	8.79 µM (inactive)	10.3 µM (inactive)	–	> 20.6 µM (inactive)	7.74 µM (inactive)	> 20.6 µM (inactive)	–	–	> 20.6 µM (inactive)
Cc1cc(NS(=O)(=O)c2ccc(Nc3c4ccccc4nc4c(C(=O)N5CCN(CCOS(C)(=O)=O)CC5)cccc34)cc2)no1	> 100 µM (inactive)	> 100 µM (inactive)	–	> 100 µM (inactive)	–	> 100 µM (inactive)	–	> 100 µM (inactive)	> 100 µM (inactive)
CN(C)CCNc1ccc2nnn3c4ccccc4c(=O)c1c23	3.61 µM (inactive)	4.07 µM (inactive)	–	2.68 µM (inactive)	3.6 µM (inactive)	2.86 µM (inactive)	1.81 µM (inactive)	6.38 µM (inactive)	3.2 µM (inactive)
O=C1CCC(=O)C(C(=O)CCC(=O)Nc2cccc(Cl)c2)C1 (stereo not given)	> 100 µM (inactive)	–	> 100 µM (inactive)	71 µM (inactive)	> 100 µM (inactive)	> 100 µM (inactive)	–	> 100 µM (inactive)	–
O=C(OCc1ccccc1)N1N=NC2C3CC(OCc4ccccc4)(OCc4ccccc4)C(O3)C21 (stereo not given)	16.9 µM (inactive)	8.99 µM (inactive)	20.6 µM (inactive)	40.7 µM (inactive)	18.8 µM (inactive)	24.4 µM (inactive)	46 µM (inactive)	22.7 µM (inactive)	15.5 µM (inactive)
NC(C(=O)O)c1ccc(C(=O)O)cc1 (stereo not given)	> 100 µM (inactive)	> 100 µM (inactive)	–	> 100 µM (inactive)	> 100 µM (inactive)	> 100 µM (inactive)	> 100 µM (inactive)	> 100 µM (inactive)	–
CC[C@]12C=CCN3CCC4(c5cc([C@@]6(C(=O)OC)CC7CN(CCc8c6[nH]c6ccccc86)CC6CCCCC67)c(OC)cc5N(C)C4[C@](O)(C(=O)OC)C1OC(C)=O)[C@@H]32 (stereo not given in full)	0.0269 µM (active)	< 0.01 µM (active)	–	< 0.01 µM (active)	< 0.01 µM (active)	< 0.01 µM (active)	–	0.0469 µM (active)	< 0.01 µM (active)
N#C/C(=C\c1ccc(O)c(O)c1)C(=O)NC1CCC(CC2CCC(NC(=O)/C(C#N)=C/c3ccc(O)c(O)c3)CC2)CC1 (stereo not given)	0.415 µM (active)	–	2.38 µM (inactive)	1.78 µM (inactive)	0.433 µM (active)	0.443 µM (active)	–	2.07 µM (inactive)	0.222 µM (active)
O=Cc1ccc(-c2cccs2)s1	> 63.1 µM (inactive)	> 90.8 µM (inactive)	> 62.8 µM (inactive)	47.9 µM (inactive)	1.76 µM (inactive)	> 100 µM (inactive)	5.08 µM (inactive)	4.33 µM (inactive)	> 100 µM (inactive)
COC(=O)/C(=N/Nc1cccc(Cl)c1)C(C(=O)C(=O)Nc1cccc(Cl)c1C)c1nc2ccccc2nc1C (stereo not given)	34.5 µM (inactive)	45 µM (inactive)	–	32 µM (inactive)	–	54 µM (inactive)	–	–	–
COc1ccc(C2S/C(=C\c3ccccc3O)C(=O)N2NC(=O)Cc2ccccc2)cc1 (stereo not given)	> 100 µM (inactive)	74.5 µM (inactive)	> 100 µM (inactive)	–	93.1 µM (inactive)	> 100 µM (inactive)	–	–	> 100 µM (inactive)
O=C1C(=O)N(c2ccc(Cl)cc2)C(=O)/C(=N/c2cccc3c(=O)[nH][nH]c(=O)c23)C1c1nc2ccccc2o1 (stereo not given)	> 100 µM (inactive)	–	> 100 µM (inactive)	> 100 µM (inactive)	> 100 µM (inactive)	> 100 µM (inactive)	> 100 µM (inactive)	–	> 100 µM (inactive)
O=S1(=O)CS(=O)(=O)OCCO1	54.7 µM (inactive)	37.5 µM (inactive)	> 100 µM (inactive)	76.6 µM (inactive)	> 100 µM (inactive)	48.8 µM (inactive)	47.8 µM (inactive)	15 µM (inactive)	51.1 µM (inactive)
CC1OC(OCC2OC(Oc3c(-c4ccc(O)cc4)oc4cc(O)cc(O)c4c3=O)C(OC3OCC(O)(CO)C3O)C(O)C2O)C(O)C(O)C1O (stereo not given)	36.8 µM (inactive)	32 µM (inactive)	> 100 µM (inactive)	> 100 µM (inactive)	> 100 µM (inactive)	21.7 µM (inactive)	> 100 µM (inactive)	–	49.2 µM (inactive)
CCOC(=O)C1S/C(=N\c2ccccc2)N=C1C (stereo not given)	49.9 µM (inactive)	59 µM (inactive)	> 100 µM (inactive)	55.7 µM (inactive)	65.8 µM (inactive)	> 100 µM (inactive)	> 100 µM (inactive)	> 100 µM (inactive)	–
CN(C)CC1CCCC1=O (stereo not given)	0.195 µM (active)	1.08 µM (active)	1.73 µM (inactive)	1.67 µM (inactive)	0.41 µM (active)	0.857 µM (active)	0.138 µM (active)	0.687 µM (active)	1.55 µM (inactive)
COc1ccc(/C=N/NC(=O)CSc2nc(-c3ccccc3)c(-c3ccccc3)[nH]2)cc1OC	42.6 µM (inactive)	46.1 µM (inactive)	–	19.1 µM (inactive)	22.1 µM (inactive)	18.4 µM (inactive)	–	–	20.4 µM (inactive)
CCCOP1(=O)C=C(O)C(Cl)=C(C)C1 (stereo not given)	> 100 µM (inactive)	–	–	> 100 µM (inactive)	> 100 µM (inactive)	> 100 µM (inactive)	–	> 100 µM (inactive)	> 100 µM (inactive)
CCOC(=O)CC1COc2ccc3c(c21)OCO3 (stereo not given)	> 100 µM (inactive)	> 100 µM (inactive)	> 100 µM (inactive)	> 100 µM (inactive)	> 100 µM (inactive)	> 100 µM (inactive)	–	> 100 µM (inactive)	> 100 µM (inactive)
COC1CC(OS(=O)(=O)c2ccc([N+](=O)[O-])cc2)C(OC(=O)c2ccccc2)C(C)O1 (stereo not given)	> 100 µM (inactive)	–	> 100 µM (inactive)	> 100 µM (inactive)	> 100 µM (inactive)	> 100 µM (inactive)	58.5 µM (inactive)	31.8 µM (inactive)	> 100 µM (inactive)
COc1ccc(C2NC3=C(CCCC3)N2)cc1	88.1 µM (inactive)	75.5 µM (inactive)	–	31.3 µM (inactive)	59.8 µM (inactive)	41.6 µM (inactive)	–	59 µM (inactive)	54.2 µM (inactive)
COC(=O)C(CC(=O)Nc1ccc(Cl)c(Cl)c1)C(=O)C(=O)NC1C2CC3CC(C2)CC1C3 (stereo not given)	–	> 100 µM (inactive)	78.3 µM (inactive)	> 100 µM (inactive)	> 100 µM (inactive)	> 100 µM (inactive)	–	–	> 100 µM (inactive)
Cc1c(/C=N/N=C/c2[nH]c(C(=O)OC(C)(C)C)c(C)c2C)[nH]c(C(=O)OC(C)(C)C)c1C	> 100 µM (inactive)	> 100 µM (inactive)	> 100 µM (inactive)	> 100 µM (inactive)	> 100 µM (inactive)	> 100 µM (inactive)	–	–	> 100 µM (inactive)
C/C=C/C1=C(Cl)C(=O)[C@@H](Cl)[C@@]1(O)C(=O)OC [(+)-CRYPTOSPORIPSIN]	2.28 µM (inactive)	–	4.09 µM (inactive)	4.68 µM (inactive)	2.64 µM (inactive)	2.55 µM (inactive)	10.5 µM (inactive)	2.82 µM (inactive)	3.54 µM (inactive)
